Columns and labels:
[1] = system: Methicillin-resistant Staphylococcus aureus (MRSA); assay: Detection of MRSA strains (colored colonies) on chromID MRSA based media with alpha-glucosidase substrates and antibiotics; assay type: cell-based; conditions: Example B, alpha-glucosidase substrates
Description: The media tested in the experiments hereinafter were media comprising the chromID MRSA medium (bioMérieux ref. 43 451) as basic medium, and comprising the following elements: • Medium T: chromID MRSA control medium (ref. 43 451), comprising in particular an X-N-methyl-alpha-glucoside substrate, at a concentration of 0.1 g/l, and Cefoxitin at 4 mg/1. • Medium S: medium T, also comprising an X-alpha-glucoside substrate, at a concentration of 25, 37, 45 or 50 mg/l. • Medium A: medium S (X-alpha-glucoside concentration: 45 mg/l), the Cefoxitin being substituted with Ceftriaxone, at a concentration of 1, 2, 4, 8, 16, 32 mg/l. • Medium B: medium S (X-alpha-glucoside concentration: 45 mg/l), the Cefoxitin being substituted with Cefotaxime at a concentration of 1, 2, 4, 8, 16, 32 mg/l. • Medium C: medium S (X-alpha-glucoside concentration: 45 mg/l), the Cefoxitin being substituted with Ertapenem at a concentration of 0.1, 0.25, 0.5, 0.75, 1 mg/l. • Medium D: medium S (X-alpha-glucoside concentration: 45 mg/l), the Cefoxitin being substituted with Cefoperazone at a concentration of 0.5, 1, 1.5, 2 mg/l. • Medium E: medium S (X-alpha-glucoside concentration: 45 mg/l), the Cefoxitin being substituted with Cefpodoxime at a concentration of 0.5, 1, 1.5, 2 mg/l. • Medium F: medium S (X-alpha-glucoside concentration: 45 mg/l), the Cefoxitin being substituted with a Cefoxitin/Cefotaxime concentration at the concentrations below:
• Medium G: medium S (X-alpha-glucoside concentration: 45 mg/l), the Cefoxitin being substituted with a Cefoxitin/Ceftriaxone combination at the concentrations below:
• Medium H: medium S (X-alpha-glucoside concentration: 45 mg/l), the Cefoxitin being substituted with a Cefoxitin/Ertapenem combination at the concentrations below:
• Medium I: medium S (X-alpha-glucoside concentration: 45 mg/l), the Cefoxitin being substituted with a Cefoxitin/Cefpodoxime combination at the concentrations below:
• Medium J: medium S (X-alpha-glucoside concentration: 45 mg/1), the Cefoxitin being substituted with a Cefoxitin/Cefoperazone combination at the concentrations below:
• Medium K: medium S (X-alpha-glucoside concentration: 45 mg/l), the Cefoxitin being substituted with a Cefoxitin/Cefotaxime combination, at the concentrations below, also comprising a mixture of inhibitors that favour the growth of Staphylococcus aureus.
• Medium L: medium S (X-alpha-glucoside concentration: 45 mg/l), the Cefoxitin being substituted with Cefdinir at a concentration of 0.25, 0.5, 1, 2, 4, 8 mg/l. • Medium M: medium S (X-alpha-glucoside concentration: 45 mg/l), the Cefoxitin being substituted with a Cefoxitin/Cefdinir combination at the concentrations below: […]
The strains detected correspond to the strains forming colored colonies on the medium.

MSSAs = assay: Sub-inhibitory concentration: below the antibiotic concentration required for inhibition of MSSAs in a culture medium; assay type: cell-based, Staphylococcus aureus; conditions: culture medium such as chromID S. aureus medium
Description: The sub-inhibitory concentration is intended to mean a concentration below the concentration of antibiotic required for inhibition of MSSAs, in a culture medium suitable for searching for S. aureus using a biological sample, such as the chromID™ S. aureus medium (bioMerieux). This concentration is below approximately 3 mg/l in the case of Cefoxitin, approximately 2 mg/l in the case of Cefotaxime, approximately 1 mg/l in the case of Ertapenem, approximately 2 mg/l in the case of Cefoperazone, approximately 2 mg/l in the case of Cefpodoxime, and approximately 1 mg/l in the case of Cefdinir.

SMILES | Sensitivity and specificity, MRSAs distinguished from MSSAs (in words) [1] | Sub-inhibitory concentration (MSSAs) [mg/L]
CO/N=C(\C(=O)N[C@@H]1C(=O)N2C(C(=O)O)=C(CSc3nc(=O)c(=O)[nH]n3C)CS[C@H]12)c1csc(N)n1 [Ceftriaxone] | did not make it possible to obtain, on their own, a sensitivity and a specificity enabling MRSAs to be distinguished from MSSAs | –
CO/N=C(\C(=O)N[C@@H]1C(=O)N2C(C(=O)O)=C(COC(C)=O)CS[C@H]12)c1csc(N)n1 [Cefotaxime] | did not make it possible to obtain, on their own, a sensitivity and a specificity enabling MRSAs to be distinguished from MSSAs | –
CO[C@@]1(NC(=O)Cc2cccs2)C(=O)N2C(C(=O)O)=C(COC(N)=O)CS[C@@H]21 [Cefoxitin] | – | < 3
C[C@@H](O)[C@H]1C(=O)N2C(C(=O)O)=C(S[C@@H]3CN[C@H](C(=O)Nc4cccc(C(=O)O)c4)C3)[C@H](C)[C@H]12 [Ertapenem] | did not make it possible to obtain, on their own, a sensitivity and a specificity enabling MRSAs to be distinguished from MSSAs | –
CCN1CCN(C(=O)N[C@@H](C(=O)N[C@@H]2C(=O)N3C(C(=O)O)=C(CSc4nnnn4C)CS[C@H]23)c2ccc(O)cc2)C(=O)C1=O [Cefoperazone] | did not make it possible to obtain, on their own, a sensitivity and a specificity enabling MRSAs to be distinguished from MSSAs | –
